From publication PMC10303200 (ACS Central Science, 2023)
pKd: −log10 of the molar value.

What was measured:
DC-SIGN CRD [1] = biological target: T1, DC-SIGN CRD (Homo sapiens, UniProt Q9NNX6); assay: COIN-nMS (submicron emitters) with a mixture of ten glycans (G2, G5, G10, G14-G20), 200 mM ammonium acetate with 2.5 mM calcium salt, pH 7.4.; format: binding; set-up: gene CD209; carbohydrate recognition domain, residues 250-404, MW 17 794 Da; details: SD, n = 6; read-out: Kd (COIN-nMS), Table S5
T1 sequence (Q9NNX6 250-404): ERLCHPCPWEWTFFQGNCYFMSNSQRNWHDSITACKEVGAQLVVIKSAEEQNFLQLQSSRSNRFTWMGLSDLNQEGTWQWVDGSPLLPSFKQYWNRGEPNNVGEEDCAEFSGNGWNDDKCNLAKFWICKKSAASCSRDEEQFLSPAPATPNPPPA

DC-SIGN CRD [2] = biological target: T1, DC-SIGN CRD; assay: Direct native ESI-MS (submicron emitters) with a mixture of ten glycans (G2, G5, G10, G14-G20), 200 mM ammonium acetate with 2.5 mM calcium salt, pH 7.4.; format: binding; set-up: gene CD209; carbohydrate recognition domain, residues 250-404, MW 17 794 Da; details: SD, n = 6; read-out: Kd (nMS), Table S5

## OC[C@H]1O[C@H](OC[C@H]2O[C@H](OC[C@H]3OC(O)[C@@H](O)[C@@H](O[C@H]4O[C@H](CO)[C@@H](O)[C@H](O)[C@@H]4O[C@H]4O[C@H](CO)[C@@H](O)[C@H](O)[C@@H]4O)[C@@H]3O)[C@@H](O)[C@@H](O[C@H]3O[C@H](CO)[C@@H](O)[C@H](O)[C@@H]3O)[C@@H]2O)[C@@H](O)[C@@H](O)[C@@H]1O (stereo partly drawn) [G16, α-D-Man-(1→3)[α-D-Man(1→6)]-α-D-Man(1→6)[α-D-Man(1→2)-α-D-Man-(1→3)]-α-D-Man]
DC-SIGN CRD [1]
  pKd: 3.25
DC-SIGN CRD [2]
  pKd: 3.09

## CC(=O)N[C@H]1[C@H](O[C@H]2[C@@H](O)[C@@H](CO)OC(O)[C@@H]2O)O[C@H](CO)[C@@H](O[C@@H]2O[C@@H](C)[C@@H](O)[C@@H](O)[C@@H]2O)[C@@H]1O[C@@H]1O[C@H](CO)[C@H](O)[C@H](O)[C@H]1O[C@@H]1O[C@@H](C)[C@@H](O)[C@@H](O)[C@@H]1O (stereo partly drawn) [G17, blood group antigen G17]
DC-SIGN CRD [1]
  pKd: 3.26
DC-SIGN CRD [2]
  pKd: 3.21

## OC[C@H]1O[C@H](O[C@H]2[C@H](O)[C@@H](O)[C@@H](O[C@H]3[C@H](O)[C@@H](O)[C@@H](O[C@H]4[C@H](O)[C@@H](O)[C@@H](O[C@H]5[C@H](O)[C@@H](O)C(O)O[C@@H]5CO)O[C@@H]4CO)O[C@@H]3CO)O[C@@H]2CO)[C@H](O)[C@@H](O)[C@@H]1O (stereo partly drawn) [G20, maltopentaose]
DC-SIGN CRD [1]
  pKd: 2.74
DC-SIGN CRD [2]
  pKd: 2.62

## OC[C@H]1O[C@H](OC[C@H]2O[C@H](OC[C@H]3OC(O)[C@@H](O)[C@@H](O)[C@@H]3O)[C@@H](O)[C@@H](O[C@H]3O[C@H](CO)[C@@H](O)[C@H](O)[C@@H]3O)[C@@H]2O)[C@@H](O)[C@@H](O)[C@@H]1O (stereo partly drawn) [G19, oligomannose glycan G19]
DC-SIGN CRD [1]
  pKd: 2.82
DC-SIGN CRD [2]
  pKd: 2.93

## CC(=O)N[C@H]1[C@H](O[C@H]2[C@@H](O)[C@@H](CO)O[C@@H](O[C@H]3[C@H](O)[C@@H](O)C(O)O[C@@H]3CO)[C@@H]2O)O[C@H](CO)[C@@H](O[C@@H]2O[C@H](CO)[C@H](O)[C@H](O[C@H]3O[C@H](CO)[C@H](O)[C@H](O)[C@H]3O)[C@H]2O[C@@H]2O[C@@H](C)[C@@H](O)[C@@H](O)[C@@H]2O)[C@@H]1O (stereo partly drawn) [G18, blood group antigen G18]
DC-SIGN CRD [1]
  pKd: 2.73
DC-SIGN CRD [2]
  pKd: 2.48

## OC[C@H]1O[C@H](O[C@@H]2[C@H](O)[C@@H](OC[C@H]3OC(O)[C@@H](O)[C@@H](O[C@H]4O[C@H](CO)[C@@H](O)[C@H](O)[C@@H]4O[C@H]4O[C@H](CO)[C@@H](O)[C@H](O)[C@@H]4O[C@H]4O[C@H](CO)[C@@H](O)[C@H](O)[C@@H]4O)[C@@H]3O)O[C@H](CO[C@H]3O[C@H](CO)[C@@H](O)[C@H](O)[C@@H]3O[C@H]3O[C@H](CO)[C@@H](O)[C@H](O)[C@@H]3O)[C@H]2O)[C@@H](O)[C@@H](O)[C@@H]1O (stereo partly drawn) [G14, α-D-Man-(1→2)-α-D-Man-(1→6)-[α-D-Man-(1→3)]-α-D-Man-(1→6)-[α-D-Man-(1→2)-α-D-Man-(1→2)-α-D-Man-(1→3)]-α-D-Man]
DC-SIGN CRD [1]
  pKd: 3.59
DC-SIGN CRD [2]
  pKd: 3.57
